Assay: isobaric coefficient of expansion
Conditions: Liquid, DSC

CCCCCCCCC [nonane]
isobaric coefficient of expansion
Conditions | 278.15 K | 288.15 K | 298.15 K | 308.15 K | 318.15 K | 328.15 K | 338.15 K | 348.15 K
5000 kPa | 0.001 1/K | 0.00103 1/K | 0.00105 1/K | 0.00106 1/K | 0.00108 1/K | 0.0011 1/K | 0.00113 1/K | 0.00114 1/K
10000 kPa | 0.000977 1/K | 0.000997 1/K | 0.00101 1/K | 0.00103 1/K | 0.00104 1/K | 0.00106 1/K | 0.00108 1/K | 0.00109 1/K
15000 kPa | 0.000954 1/K | 0.000967 1/K | 0.000984 1/K | 0.000995 1/K | 0.00101 1/K | 0.00102 1/K | 0.00103 1/K | 0.00104 1/K
20000 kPa | 0.000928 1/K | 0.00094 1/K | 0.000955 1/K | 0.000962 1/K | 0.00097 1/K | 0.000984 1/K | 0.000992 1/K | 0.000998 1/K
25000 kPa | 0.000907 1/K | 0.000917 1/K | 0.000927 1/K | 0.000935 1/K | 0.000941 1/K | 0.000949 1/K | 0.00096 1/K | 0.000964 1/K
30000 kPa | 0.000886 1/K | 0.000898 1/K | 0.000903 1/K | 0.000912 1/K | 0.000915 1/K | 0.000921 1/K | 0.000931 1/K | 0.000931 1/K
35000 kPa | 0.000868 1/K | 0.000875 1/K | 0.000878 1/K | 0.000883 1/K | 0.000889 1/K | 0.000892 1/K | 0.000899 1/K | 0.0009 1/K
40000 kPa | 0.000841 1/K | 0.000853 1/K | 0.000856 1/K | 0.00086 1/K | 0.000864 1/K | 0.000865 1/K | 0.000866 1/K | 0.000869 1/K
45000 kPa | 0.000827 1/K | 0.000836 1/K | 0.000839 1/K | 0.000838 1/K | 0.000841 1/K | 0.000843 1/K | 0.000846 1/K | 0.000844 1/K
50000 kPa | 0.000811 1/K | 0.000819 1/K | 0.000819 1/K | 0.00082 1/K | 0.000825 1/K | 0.000822 1/K | 0.000825 1/K | 0.000823 1/K
55000 kPa | 0.000803 1/K | 0.000799 1/K | 0.000803 1/K | 0.000804 1/K | 0.000806 1/K | 0.000803 1/K | 0.000807 1/K | 0.000806 1/K

CCCCCCCCCCCCCCC [pentadecane]
isobaric coefficient of expansion
Conditions | 298.15 K | 308.15 K | 318.15 K | 328.15 K | 338.15 K | 348.15 K
5000 kPa | 0.000896 1/K | 0.000898 1/K | 0.000901 1/K | 0.000904 1/K | 0.000914 1/K | 0.000925 1/K
10000 kPa | 0.000871 1/K | 0.000873 1/K | 0.000873 1/K | 0.000873 1/K | 0.000883 1/K | 0.000886 1/K
15000 kPa | 0.000848 1/K | 0.000848 1/K | 0.00085 1/K | 0.000846 1/K | 0.000846 1/K | 0.000854 1/K
20000 kPa | 0.000825 1/K | 0.000824 1/K | 0.000824 1/K | 0.000823 1/K | 0.000821 1/K | 0.000826 1/K
25000 kPa | 0.000805 1/K | 0.000803 1/K | 0.000803 1/K | 0.000798 1/K | 0.000798 1/K | 0.000801 1/K
30000 kPa | 0.000793 1/K | 0.000786 1/K | 0.000786 1/K | 0.000781 1/K | 0.000782 1/K | 0.000783 1/K
35000 kPa | 0.000772 1/K | 0.000767 1/K | 0.000764 1/K | 0.000762 1/K | 0.00076 1/K | 0.000758 1/K
40000 kPa | 0.000756 1/K | 0.000751 1/K | 0.000746 1/K | 0.000744 1/K | 0.000738 1/K | 0.000737 1/K
45000 kPa | 0.000742 1/K | 0.000734 1/K | 0.000731 1/K | 0.000726 1/K | 0.000724 1/K | 0.00072 1/K
50000 kPa | 0.00073 1/K | 0.000721 1/K | 0.000718 1/K | 0.00071 1/K | 0.00071 1/K | 0.000705 1/K
55000 kPa | 0.000717 1/K | 0.000709 1/K | 0.000705 1/K | 0.000699 1/K | 0.000697 1/K | 0.000694 1/K

Reference: the NIST ThermoML archive (doi:10.1021/je900757k)
